“Also recorded” adds a separate entry of the source.
Assays:
[1] = system: developing conceptuses; settings: 250 mg/kg prior to mating; fast elimination; cited from earlier work
[2] = system: yolk sac vasculogenesis; test: Whole conceptus culture: yolk sac vasculogenesis under hyperglycemia; assay type: cell-based, mouse; settings: for rescue of hyperglycemia-arrested yolk sac vascular development (arborization): conceptus culture with 20 mM D-glucose plus agent, PECAM-1 staining
Protocol: Timed pregnant mice are used to harvest 7.5 and 9.5 days post conception (dpc) conceptuses from which yolk sac and hearts are dissected. The atrioventricular canals are isolated for subsequent culture and analysis of the epithelial to mesenchymal transformation that occurs in the formation of the endocardial cushion.
(§1) Conceptuses are cultured for 48 hrs in the presence of rat serum or rat serum+20 mM D-Glucose, or rat serum+20 mM D-Glucose+rVEGF or NO donor or 20 mM mannitol for 48 hrs. At 8.5 dpc the yolk sacs are harvested and analyzed using LC-MS and LC-MS-MS methods as well as by traditional cell and molecular biological methods. At 9.5 dpc atrioventricular (AV) canals are harvested from the conceptuses and cultured for 48 to 72 hrs on collagen gels to allow epithelial-mesenchymal transformation (EMT). The AV canal cultures are analyzed by double or triple label standard and confocal immunofluorescence microscopy, laser dissection capture microscopy followed by Western blotting for protein determination, characterization and localization. The effects of exogenous VEGF-A (1, 10 & 20 ng/ml), Pro- and mature BDNF (1, 25 & 50 ng/ml), NO donor (Noc-18) TIMP-1 and TIMP-2 (1, 25 & 50 ng/ml) on EMT and protein expression, post-translational modification and degradation are assessed.
Using this embryo culture system, groups of ten 7.5 dpc conceptuses were cultured in normoglycemic conditions (5.0 mM D-glucose [control]), hyperglycemic conditions (20 mM D-glucose [HG]), HG+10 pg/ml VEGF A165 (HG+rVEGF) and HG+a slow release NO donor (HG+Noc-18) for 24 hrs. The conceptuses were harvested at 8.5 dpc when their yolk sacs were at the primary capillary plexus stage and beginning to undergo vascular remodeling. Lysates were then prepared for SDS-PAGE, Silver Staining and MS analysis. FIG. 4A depicts PECAM-1 staining of the capillary plexas at 8.5 dpc and illustrates the non-descript vascular plexus observable at this stage of development. […] This is in contrast to LC-MS and LC-MS-MS analyses of these samples (see below).

[3] = system: cardiac EMT; settings: cardiac A-V canal and outflow tract cultures, 20 mM D-glucose; cited from earlier work
[4] = system: ADAM 15; test: Western blot of ADAM 15 in yolk sacs across treatment groups; assay type: cell-based, mouse; settings: yolk sac / whole conceptus culture, 20 mM D-glucose plus agent
Protocol: as §1
(§2) Further, several of these proteins were validated in conceptus culture assays prior to and following VEGF and NO donor rescues using Western blotting, histological and immunolocalization analyses. […] Further, sequestration of Wnt16 (FIG. 11), ADAM 15 (FIG. 12), and NOGO A (FIG. 13) by antibodies directed against them abrogated EMT in cardiac AVC cushion explant cultures. […]

[5] = system: Wnt16; test: Western blot of Wnt16 in yolk sacs across treatment groups; assay type: cell-based, mouse; settings: yolk sac / whole conceptus culture, 20 mM D-glucose plus agent
Protocol: as §1, §2

[6] = system: NOGO A; test: Western blot of NOGO A in yolk sacs across treatment groups; assay type: cell-based, mouse; settings: yolk sac culture, hyperglycemia plus agent, listed as NO donor
Protocol: as §1, §2

CN(N=O)C(=O)N[C@H]1C(O)O[C@H](CO)[C@@H](O)[C@@H]1O (mixture of isomers) [Streptozotocin]
toxic effect on the developing conceptuses [1]: no toxic effect

OC[C@H]1O[C@H](O)[C@H](O)[C@@H](O)[C@@H]1O [alpha-D-glucose]
effect on yolk sac vasculogenesis ([2]; transient (as little as 3 hr) exposure, 20 mM alpha-D-glucose): arrest yolk sac vasculogenesis at the primary capillary plexus stage
effect on cardiac cushion formation [3]: arrested cushion formation

NCCN(CCN)/[N+]([O-])=N/O [NOC-18]
ADAM 15 expression level (downregulated by hyperglycemia) after treatment [4]: up-regulated to near normoglycemic levels
ADAM 15 expression level (downregulated by hyperglycemia) after treatment ([4]; listed as NO donor): rescued; also recorded: returned to normal levels
rescue of hyperglycemia-arrested yolk sac vascular development (arborization) [2]: rescue of the hyperglycemic arrest of vascular development; also recorded: restore normal vascular morphology; also recorded: rescue of yolk Sac vascular development
rescue of hyperglycemia-arrested yolk sac vascular development (arborization) ([2]; listed as NO donor): reversed
rescue of hyperglycemia-arrested yolk sac vascular development (arborization) ([2]; listed as NOD): restores vascular arborization
Wnt16 expression level (upregulated by hyperglycemia) after treatment [5]: down-regulated to near normoglycemic levels
Wnt16 expression level (upregulated by hyperglycemia) after treatment ([5]; listed as NO donor): rescued; also recorded: returned to normal levels
NOGO A expression level (downregulated by hyperglycemia) after treatment [6]: rescued; also recorded: returned to normal levels

— patent US20090305259A1, “Early Diagnosis of Congenital Abnormalities in the Offspring of Diabetic Mothers” (YALE UNIVERSITY, priority 2006, published 2009)
